Molecular target: Thrombin (Homo sapiens, UniProt P00734)
Experiment: Thrombin cleavage of Z-Gly-Pro-Arg-p-phenylenediamine, photometric detection by oxidative coupling with a-naphthol
Format: biochemical
Conditions: pH 8; buffer as for fluorescence measurement + 2% Triton X100; substrate cleavage by thrombin
Protocol: Buffer, substrate and fibrinogen were placed in a 96-well microtiter plate. The enzyme was injected with the injector attached to the TECAN reader. The experimental conditions are set out in the following information. • Substrate conc. Z-Gly-Pro-Arg-aminomethylcoumarin 10 mM in DMSO • Substrate dil. Z-Gly-Pro-Arg-aminomethylcoumarin 1 mM in DMSO • Test buffer 50 mM Tris, 250 mM NaCl, 0.1% PEG6000, pH 8.0 • Haemocomplettan 100 mg/ml dist. water≅44 mg/ml of fibrinogen • Enzyme Solution 1 U/ml in 10 mM HEPES, 0.1% bovine serum albumin, pH 6.4 • Temperature 30 C
Thrombin also cleaves Z-Gly-Pro-Arg-p-phenylenediamine. The product could be detected by oxidative coupling with a-naphthol in the presence of hexacyanoferrate III. The result was a violet dye with Amax=565 nm. The Michaelis-Menten constant at pH 8 (buffer as for fluorescence measurement+2% Triton X100) was 6 μM.

Substance: Z-Gly-Pro-Arg-p-phenylenediamine
- Michaelis-Menten constant: 6 µM

Source: patent US20190264255A1, “Competition Test of an Enzyme Substrate with Internal Compensation for Enzyme Activity” (TECHNISCHE UNIVERSITÄT DARMSTADT, priority 2016, published 2019)
